From the NIST ThermoML archive (doi:10.1016/j.jct.2009.06.007)
± gives the expanded uncertainty stated by the source.

Legend:
[1] = 298.15 K, 101.33 kPa, Liquid
[2] = xn = mol fraction of the nth substance listed; settings: 298.15 K, 101 kPa, Liquid; for viscosity: Capillary tube (Ostwald / Ubbelohde) method; for mass density: Vibrating tube method
[3] = refractive index (Na D-line) (dimensionless); xn = mol fraction of the nth substance listed; settings: 298.15 K, 101 kPa, Liquid, Standard Abbe refractometry

CCCCCCCCn1cc[n+](C)c1.O=S(=O)([N-]S(=O)(=O)C(F)(F)F)C(F)(F)F
[1]
Settings | mass density [kg/m3] | viscosity [mPa·s]
Capillary tube (Ostwald / Ubbelohde) method | – | 92.51 ± 1.5
Pycnometric method | 1320.59 ± 1.3 | –

CCCCCCCCn1cc[n+](C)c1.O=S(=O)([N-]S(=O)(=O)C(F)(F)F)C(F)(F)F + CO
Settings | mass density, [2] [kg/m3] | refractive index, [3] | viscosity, [2] [mPa·s]
x2 = 0.0654 | 1316.5 ± 0.47 | 1.43207 ± 0.0007 | 78.34 ± 2.3
x2 = 0.0863 | 1315.1 ± 0.46 | 1.43188 ± 0.0007 | 74.57 ± 2.1
x2 = 0.2134 | 1305.18 ± 0.39 | 1.42995 ± 0.0007 | 53.65 ± 1.3
x2 = 0.3138 | 1295.08 ± 0.34 | 1.42809 ± 0.0007 | 40.77 ± 0.9
x2 = 0.3873 | 1285.91 ± 0.31 | 1.42619 ± 0.0007 | 32.92 ± 0.68
x2 = 0.5038 | 1267.04 ± 0.27 | 1.42266 ± 0.0007 | 22.27 ± 0.41
x2 = 0.6155 | 1240.79 ± 0.24 | 1.41741 ± 0.0007 | 14.57 ± 0.24
x2 = 0.7018 | 1210.98 ± 0.26 | 1.41157 ± 0.00071 | 9.493 ± 0.14
x2 = 0.805 | 1154.04 ± 0.34 | 1.40017 ± 0.00071 | 4.919 ± 0.07
x2 = 0.902 | 1052.54 ± 0.43 | 1.38017 ± 0.00071 | 2.144 ± 0.03

CCCCCCCCn1cc[n+](C)c1.O=S(=O)([N-]S(=O)(=O)C(F)(F)F)C(F)(F)F + COC(C)=O
Settings | mass density, [2] [kg/m3] | refractive index, [3] | viscosity, [2] [mPa·s]
x2 = 0.0699 | 1314.77 ± 0.47 | 1.4319 ± 0.0007 | 75.62 ± 2.1
x2 = 0.1317 | 1308.87 ± 0.43 | 1.43089 ± 0.0007 | 63.25 ± 1.6
x2 = 0.1748 | 1304.45 ± 0.41 | 1.43009 ± 0.0007 | 56.12 ± 1.4
x2 = 0.2177 | 1299.57 ± 0.38 | 1.42927 ± 0.0007 | 49.13 ± 1.2
x2 = 0.3226 | 1285.83 ± 0.33 | 1.42694 ± 0.00069 | 33.76 ± 0.7
x2 = 0.4105 | 1271.88 ± 0.3 | 1.42453 ± 0.00069 | 23.79 ± 0.44
x2 = 0.5011 | 1253.68 ± 0.27 | 1.42124 ± 0.00069 | 15.98 ± 0.27
x2 = 0.6001 | 1228.33 ± 0.24 | 1.41684 ± 0.00068 | 9.815 ± 0.15
x2 = 0.6992 | 1193.95 ± 0.24 | 1.41055 ± 0.00068 | 5.527 ± 0.079
x2 = 0.7872 | 1151.29 ± 0.29 | 1.40296 ± 0.00068 | 3.066 ± 0.042
x2 = 0.8984 | 1067.39 ± 0.32 | 1.387 ± 0.00068 | 1.206 ± 0.017

COC(C)=O [methyl ethanoate] + CO
Settings | mass density, [2] [kg/m3] | refractive index, [3] | viscosity, [2] [mPa·s]
x1 = 0.0939 | 810.62 ± 0.15 | 1.3322 ± 0.00068 | 0.491 ± 0.006
x1 = 0.1986 | 833.17 ± 0.14 | 1.33757 ± 0.00068 | 0.452 ± 0.006
x1 = 0.3009 | 851.78 ± 0.12 | 1.34192 ± 0.00068 | 0.417 ± 0.005
x1 = 0.4016 | 867.5 ± 0.12 | 1.3456 ± 0.00068 | 0.393 ± 0.005
x1 = 0.4943 | 880.02 ± 0.11 | 1.34851 ± 0.00068 | 0.378 ± 0.005
x1 = 0.5851 | 890.77 ± 0.1 | 1.35095 ± 0.00068 | 0.369 ± 0.005
x1 = 0.6941 | 902.17 ± 0.1 | 1.35349 ± 0.00068 | 0.361 ± 0.004
x1 = 0.7694 | 909.19 ± 0.09 | 1.35503 ± 0.00068 | 0.358 ± 0.004
x1 = 0.8875 | 918.93 ± 0.09 | 1.35712 ± 0.00068 | 0.358 ± 0.004
